Data from PubChem BioAssay (NCI).
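In this assay, cells in 96-well plates receive the compound at five concentrations for 48 hours. Endpoints are linearly interpolated between the surrounding concentrations. TGI denotes the concentration required for complete inhibition of growth.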

Legend:
Assay in all cases: inhibition of tumour cell growth, NCI panel, 48 h
[1] = test system: NCI/ADR-RES ovarian
[2] = test system: SK-MEL-28 melanoma
[3] = test system: SNB-19 CNS
[4] = test system: PC-3 prostate
[5] = test system: OVCAR-4 ovarian
[6] = test system: CAKI-1 renal
[7] = test system: KM12 colon
[8] = test system: HCC-2998 colon
[9] = test system: MDA-MB-231 breast
[10] = test system: OVCAR-5 ovarian
[11] = test system: SF-268 CNS
[12] = test system: HCT-116 colon
[13] = test system: K-562 leukemia
[14] = test system: SNB-75 CNS
[15] = test system: HCT-15 colon
[16] = test system: SF-539 CNS
[17] = test system: HT29 colon
[18] = test system: UACC-62 melanoma
[19] = test system: IGROV1 ovarian
[20] = test system: MALME-3M melanoma
[21] = test system: HS 578T breast
[22] = test system: SN12C renal
[23] = test system: SF-295 CNS
[24] = test system: HL-60(TB) leukemia
[25] = test system: SW-620 colon
[26] = test system: CCRF-CEM leukemia
[27] = test system: HOP-62 NSCLC
[28] = test system: ACHN renal
[29] = test system: MDA-N
[30] = test system: UACC-257 melanoma
[31] = test system: A549 NSCLC
[32] = test system: MDA-MB-435
[33] = test system: DU-145 prostate
[34] = test system: COLO 205 colon
[35] = test system: LOX IMVI melanoma
[36] = test system: MCF7 breast
[37] = test system: NCI-H522 lung
[38] = test system: SK-OV-3 ovarian
[39] = test system: MOLT-4 leukemia
[40] = test system: BT-549 breast
[41] = test system: RPMI-8226 leukemia
[42] = test system: U251 CNS
[43] = test system: SK-MEL-5 melanoma
[44] = test system: 786-0 renal
[45] = test system: T-47D breast
[46] = test system: TK-10 renal
[47] = test system: M14 melanoma
[48] = test system: OVCAR-3 ovarian
[49] = test system: NCI-H23 lung
[50] = test system: OVCAR-8 ovarian
[51] = test system: SR leukemia
[52] = test system: HOP-92 NSCLC
[53] = test system: EKVX NSCLC
[54] = test system: NCI-H460 lung
[55] = test system: A498 renal
[56] = test system: SK-MEL-2 melanoma
[57] = test system: NCI-H226 lung
[58] = test system: UO-31 renal
[59] = test system: RXF 393 renal

## COC(=O)C1=Nc2c(C)nn(-c3ccccc3)c2N=C(c2ccc([N+](=O)[O-])cc2)C1
[1]
  TGI: > 10 µM
[2]
  TGI: > 10 µM
[3]
  TGI: > 10 µM
[4]
  TGI: > 10 µM
[5]
  TGI: > 10 µM
[6]
  TGI: > 10 µM
[7]
  TGI: > 10 µM
[8]
  TGI: > 10 µM
[9]
  TGI: > 10 µM
[10]
  TGI: > 10 µM
[11]
  TGI: > 10 µM
[12]
  TGI: > 10 µM
[13]
  TGI: > 10 µM
[14]
  TGI: > 10 µM
[15]
  TGI: > 10 µM
[16]
  TGI: > 10 µM
[17]
  TGI: > 10 µM
[18]
  TGI: > 10 µM
[19]
  TGI: > 10 µM
[20]
  TGI: > 10 µM
[21]
  TGI: > 10 µM
[22]
  TGI: > 10 µM
[23]
  TGI: > 10 µM
[24]
  TGI: > 10 µM
[25]
  TGI: > 10 µM
[26]
  TGI: > 10 µM
[27]
  TGI: > 10 µM
[28]
  TGI: > 10 µM
[29]
  TGI: > 10 µM
[30]
  TGI: > 10 µM
[31]
  TGI: > 10 µM
[32]
  TGI: > 10 µM
[33]
  TGI: > 10 µM
[34]
  TGI: > 10 µM
[35]
  TGI: > 10 µM
[36]
  TGI: > 10 µM
[37]
  TGI: > 10 µM
[38]
  TGI: > 10 µM
[39]
  TGI: > 10 µM
[40]
  TGI: > 10 µM
[41]
  TGI: > 10 µM
[42]
  TGI: > 10 µM
[43]
  TGI: > 10 µM
[44]
  TGI: > 10 µM
[45]
  TGI: > 10 µM
[46]
  TGI: > 10 µM
[47]
  TGI: > 10 µM
[48]
  TGI: > 10 µM
[49]
  TGI: > 10 µM
[50]
  TGI: > 10 µM
[51]
  TGI: > 10 µM
[52]
  TGI: > 10 µM

## CCOC(=O)/C(C#N)=N\Nc1ccc(-n2c(C)nc3ccccc3c2=O)cc1
[53]
  TGI: > 100 µM
[54]
  TGI: > 100 µM
[1]
  TGI: 86.8 µM
[2]
  TGI: > 100 µM
[3]
  TGI: > 100 µM
[4]
  TGI: > 100 µM
[55]
  TGI: > 100 µM
[6]
  TGI: > 100 µM
[7]
  TGI: > 100 µM
[9]
  TGI: > 100 µM
[10]
  TGI: > 100 µM
[11]
  TGI: > 100 µM
[12]
  TGI: > 100 µM
[13]
  TGI: > 100 µM
[14]
  TGI: > 100 µM
[15]
  TGI: > 100 µM
[16]
  TGI: > 100 µM
[17]
  TGI: > 100 µM
[18]
  TGI: > 100 µM
[19]
  TGI: > 100 µM
[21]
  TGI: > 100 µM
[22]
  TGI: > 100 µM
[23]
  TGI: > 100 µM
[24]
  TGI: > 100 µM
[25]
  TGI: > 100 µM
[26]
  TGI: > 100 µM
[27]
  TGI: > 100 µM
[56]
  TGI: > 100 µM
[28]
  TGI: > 100 µM
[29]
  TGI: > 100 µM
[30]
  TGI: > 100 µM
[31]
  TGI: > 100 µM
[57]
  TGI: > 100 µM
[32]
  TGI: > 100 µM
[33]
  TGI: > 100 µM
[34]
  TGI: > 100 µM
[35]
  TGI: > 100 µM
[36]
  TGI: > 100 µM
[38]
  TGI: > 100 µM
[39]
  TGI: > 100 µM
[40]
  TGI: > 100 µM
[41]
  TGI: > 100 µM
[42]
  TGI: > 100 µM
[43]
  TGI: 36.6 µM
[44]
  TGI: > 100 µM
[45]
  TGI: > 100 µM
[58]
  TGI: > 100 µM
[46]
  TGI: > 100 µM
[47]
  TGI: > 100 µM
[48]
  TGI: 82.4 µM
[49]
  TGI: > 100 µM
[50]
  TGI: > 100 µM
[51]
  TGI: > 100 µM
[52]
  TGI: > 100 µM

## Brc1cccc(N=NN2CCCC2)c1
[53]
  TGI: > 100 µM
[54]
  TGI: > 100 µM
[1]
  TGI: > 100 µM
[3]
  TGI: > 100 µM
[4]
  TGI: > 100 µM
[5]
  TGI: > 100 µM
[55]
  TGI: > 100 µM
[6]
  TGI: > 100 µM
[7]
  TGI: > 100 µM
[9]
  TGI: > 100 µM
[10]
  TGI: > 100 µM
[11]
  TGI: > 100 µM
[12]
  TGI: > 100 µM
[13]
  TGI: > 100 µM
[14]
  TGI: > 100 µM
[15]
  TGI: > 100 µM
[16]
  TGI: > 100 µM
[18]
  TGI: > 100 µM
[19]
  TGI: > 100 µM
[21]
  TGI: > 100 µM
[22]
  TGI: > 100 µM
[23]
  TGI: > 100 µM
[24]
  TGI: > 100 µM
[25]
  TGI: > 100 µM
[26]
  TGI: > 100 µM
[27]
  TGI: > 100 µM
[56]
  TGI: > 100 µM
[28]
  TGI: > 100 µM
[29]
  TGI: > 100 µM
[30]
  TGI: > 100 µM
[57]
  TGI: > 100 µM
[32]
  TGI: > 100 µM
[33]
  TGI: > 100 µM
[34]
  TGI: > 100 µM
[35]
  TGI: > 100 µM
[36]
  TGI: > 100 µM
[37]
  TGI: > 100 µM
[38]
  TGI: > 100 µM
[39]
  TGI: > 100 µM
[40]
  TGI: > 100 µM
[41]
  TGI: 58.8 µM
[42]
  TGI: > 100 µM
[43]
  TGI: > 100 µM
[44]
  TGI: > 100 µM
[45]
  TGI: > 100 µM
[58]
  TGI: > 100 µM
[46]
  TGI: > 100 µM
[59]
  TGI: > 100 µM
[47]
  TGI: > 100 µM
[48]
  TGI: > 100 µM
[49]
  TGI: > 100 µM
[50]
  TGI: > 100 µM
[51]
  TGI: > 100 µM
[52]
  TGI: > 100 µM

## CCC(C)C(=O)OC1CC2(C)C(c3ccoc3)OC(=O)CC23OC2(C)OC34C(OC(=O)C(C)C)C3(O)C(OC(=O)C5(C)OC5C)C5(C)CC3(O)C(C)(C5CC(=O)OC)C14O2 (stereo not given)
[53]
  TGI: > 100 µM
[54]
  TGI: > 100 µM
[1]
  TGI: > 100 µM
[2]
  TGI: > 100 µM
[3]
  TGI: > 100 µM
[4]
  TGI: > 100 µM
[5]
  TGI: > 100 µM
[55]
  TGI: > 100 µM
[6]
  TGI: > 100 µM
[7]
  TGI: > 100 µM
[8]
  TGI: > 100 µM
[9]
  TGI: > 100 µM
[10]
  TGI: > 100 µM
[11]
  TGI: > 100 µM
[12]
  TGI: > 100 µM
[13]
  TGI: > 100 µM
[14]
  TGI: > 100 µM
[15]
  TGI: > 100 µM
[16]
  TGI: 79.6 µM
[17]
  TGI: > 100 µM
[18]
  TGI: > 100 µM
[19]
  TGI: > 100 µM
[20]
  TGI: > 100 µM
[21]
  TGI: > 100 µM
[22]
  TGI: > 100 µM
[23]
  TGI: > 100 µM
[24]
  TGI: 38.9 µM
[25]
  TGI: > 100 µM
[26]
  TGI: 74.1 µM
[56]
  TGI: > 100 µM
[28]
  TGI: > 100 µM
[29]
  TGI: > 100 µM
[30]
  TGI: > 100 µM
[31]
  TGI: > 100 µM
[57]
  TGI: > 100 µM
[32]
  TGI: > 100 µM
[33]
  TGI: > 100 µM
[34]
  TGI: 57.5 µM
[35]
  TGI: > 100 µM
[36]
  TGI: 66.1 µM
[37]
  TGI: > 100 µM
[38]
  TGI: > 100 µM
[39]
  TGI: 65.8 µM
[40]
  TGI: > 100 µM
[42]
  TGI: > 100 µM
[43]
  TGI: 87 µM
[44]
  TGI: > 100 µM
[45]
  TGI: > 100 µM
[58]
  TGI: > 100 µM
[46]
  TGI: > 100 µM
[47]
  TGI: > 100 µM
[49]
  TGI: > 100 µM
[50]
  TGI: > 100 µM
[51]
  TGI: 95 µM
[52]
  TGI: > 100 µM
